Data as given in ChEMBL document CHEMBL5620364, “Structure-affinity relationships of stereoisomers of norbenzomorphan-derived σ2R/TMEM97 modulators” (Eur J Med Chem, 2023).
pKi: −log10 of the molar value.

Tests used:
[1] = biological target: T1, Sigma intracellular receptor 2 (Rattus norvegicus, UniProt Q5U3Y7); experiment: biochemical
T1 sequence (Q5U3Y7 whole entry): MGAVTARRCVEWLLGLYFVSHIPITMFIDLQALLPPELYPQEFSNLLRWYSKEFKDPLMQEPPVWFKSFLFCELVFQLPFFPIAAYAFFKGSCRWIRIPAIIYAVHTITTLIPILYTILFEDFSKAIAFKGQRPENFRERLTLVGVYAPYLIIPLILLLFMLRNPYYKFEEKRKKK
Description: Binding affinity to sigma 2 receptor in rat PC12 cells assessed as inhibition constant

[2] = biological target: T2, Sigma non-opioid intracellular receptor 1 (Homo sapiens, UniProt Q99720); experiment: Displacement of [3H](+)-pentazocine from sigma 1 receptor in HEK293 cells assessed as inhibition constant by radioligand competition binding assay; assay type: cell-based
T2 sequence (Q99720 whole entry): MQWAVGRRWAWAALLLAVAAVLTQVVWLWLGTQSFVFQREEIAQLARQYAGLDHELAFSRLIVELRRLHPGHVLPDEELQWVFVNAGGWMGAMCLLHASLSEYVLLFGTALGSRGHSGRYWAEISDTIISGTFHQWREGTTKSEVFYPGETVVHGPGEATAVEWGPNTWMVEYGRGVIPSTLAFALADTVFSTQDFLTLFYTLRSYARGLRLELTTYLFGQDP

[3] = biological target: T3, Sigma intracellular receptor 2 (Homo sapiens, UniProt Q5BJF2); experiment: Displacement of [3H](+)-ditolylguanidine from human sigma 2 receptor transfected in human HEK293T cells assessed as inhibition constant in presence of (+)-pentazocine by radioligand competition binding assay; assay type: cell-based, HEK293
T3 sequence (Q5BJF2 whole entry): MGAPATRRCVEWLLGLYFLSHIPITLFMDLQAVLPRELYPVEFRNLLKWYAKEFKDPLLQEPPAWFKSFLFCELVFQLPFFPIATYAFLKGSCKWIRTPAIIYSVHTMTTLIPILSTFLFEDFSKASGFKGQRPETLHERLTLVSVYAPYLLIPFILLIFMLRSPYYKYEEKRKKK

[4] = biological target: T3, Sigma intracellular receptor 2; experiment: Binding affinity to sigma 2 receptor (unknown origin) assessed as inhibition constant
[5] = biological target: T2, Sigma non-opioid intracellular receptor 1; experiment: Binding affinity to sigma 1 receptor (unknown origin) assessed as inhibition constant

Compound	pKi [1]	pKi [2]	pKi [3]	pKi [4]	pKi [5]
Clc1ccc2c(c1)C1CC2CCCN1CCc1ccccc1 (configuration not stated)	6.61	–	–	–	–
O=C(OCc1ccccc1)N1CC[C@@H]2C[C@H]1c1cc(N3CCCN(CCCF)CC3)ccc12	–	7.93	7.65	–	–
COCCCN1CCN(c2ccc3c(c2)[C@@H]2C[C@H]3CCN2C(=O)OCc2ccccc2)CC1	–	–	–	8.10	7.23
O=C(OCc1ccc(C(F)(F)F)cc1)N1CC[C@@H]2C[C@H]1c1cc(N3CCN(CCCF)CC3)ccc12	–	7.17	7.68	–	–
CCN(CC)C(=O)CCN1CCN(c2ccc3c(c2)[C@@H]2C[C@H]3CCN2C(=O)OCc2ccccc2)CC1	–	–	–	7.91	6.71
O=C(/C=C/c1ccccc1)N1CC[C@@H]2C[C@H]1c1cc(N3CCN(CCCF)CC3)ccc12	–	6.73	–	7.27	–
CNCCC(=O)N1CCN(c2ccc3c(c2)[C@@H]2C[C@H]3CCN2C(=O)OCc2ccccc2)CC1	–	–	–	6.96	6.72
O=C(OCc1cccc(F)c1)N1CC[C@@H]2C[C@H]1c1cc(N3CCN(CCCF)CC3)ccc12	–	7.76	7.67	–	–
CN(C)CCN1CCN(c2ccc3c(c2)[C@@H]2C[C@H]3CCN2C(=O)OCc2ccccc2)CC1	–	–	–	7.28	7.08
CN(C)C1CCN(c2ccc3c(c2)[C@@H]2C[C@H]3CCN2C(=O)OCc2ccccc2)CC1	–	6.85	–	7.50	–
O=C(OCc1ccc(Cl)cc1)N1CC[C@@H]2C[C@H]1c1cc(N3CCN(CCCF)CC3)ccc12	–	7.02	7.57	–	–
CCCCN1C[C@@H]2CN(c3ccc4c(c3)[C@@H]3C[C@H]4CCN3C(=O)OCc3ccccc3)C[C@@H]2C1	–	7.30	7.55	–	–
O=C(CCc1ccccc1)N1CC[C@@H]2C[C@H]1c1cc(N3CCN(CCCF)CC3)ccc12	–	7.24	–	6.40	–
O=C(OCc1ccccc1)N1CC[C@@H]2C[C@H]1c1cc(N3CC4CCC(C3)N4CCCF)ccc12	–	7.15	7.75	–	–
CN(C)CCCOC1CN(c2ccc3c(c2)[C@@H]2C[C@H]3CCN2C(=O)OCc2ccccc2)C1	–	6.93	7.24	–	–

Further lines, results first:

pKi [1]	pKi [2]	pKi [3]	pKi [4]	pKi [5]	Compound
–	7.29	7.46	–	–	O=C(OCc1ccccc1)N1CC[C@H]2C[C@@H]1c1cc(N3CCN(C4CCC4)CC3)ccc12
–	7.03	–	7.61	–	CN1CC(CN2CCN(c3ccc4c(c3)[C@@H]3C[C@H]4CCN3C(=O)OCc3ccccc3)CC2)C1
–	7.09	7.61	–	–	O=C(OCc1ccccc1)N1CC[C@H]2C[C@@H]1c1cc(N3CCN(CCCF)CC3)ccc12
–	7.48	7.91	–	–	O=C(OCc1ccccc1)N1CC[C@@H]2C[C@H]1c1cc(N3CCN(C4CCC4)CC3)ccc12
–	6.51	6.89	–	–	COCCN1CCN(c2ccc3c(c2)[C@H]2C[C@@H]3CCN2C(=O)OCc2ccccc2)CC1
–	–	–	7.45	7.27	CN1CC(C(=O)N2CCN(c3ccc4c(c3)[C@@H]3C[C@H]4CCN3C(=O)OCc3ccccc3)CC2)C1
–	6.29	7.12	–	–	O=C(OCc1ccccc1)N1CC[C@@H]2C[C@H]1c1cc(N3CCN(CCO)CC3)ccc12
–	6.71	7.33	–	–	COCCN1CCN(c2ccc3c(c2)[C@@H]2C[C@H]3CCN2C(=O)OCc2ccccc2)CC1
–	5.76	6.70	–	–	O=C(OCc1ccccc1)N1CC[C@H]2C[C@@H]1c1cc(N3CCN(CCO)CC3)ccc12
–	–	–	7.22	6.76	CNCCN1CCN(c2ccc3c(c2)[C@@H]2C[C@H]3CCN2C(=O)OCc2ccccc2)CC1
–	7.42	8.04	8.04	–	O=C(OCc1ccccc1)N1CC[C@@H]2C[C@H]1c1cc(N3CCN(CCCF)CC3)ccc12
